Target: WDR5 (Homo sapiens (Human), UniProt P61964)
Assay: Surface Plasmon Resonance (SPR) assay, KD and residence time
Assay type: binding
Conditions: surface plasmon resonance (SPR) assay; read-out: WDR5 binding affinity (KD)

Kd [nM] | SMILES
2.56 | C[C@@H]1CN(c2cc(F)c(C3=CCN(c4ncccn4)C3)cc2NC(=O)c2c[nH]c(=O)cc2C(F)(F)F)C[C@H](C)N1C [Example 335, N-[4-fluoro-5-(1-pyrimidin-2-yl-2,5-dihydropyrrol-3-yl)-2-[(3R,5S)-3,4,5-trimethylpiperazin-1-yl]phenyl]-6-oxo-4-(trifluoromethyl)-1H-pyridine-3-carboxamide]
11.1 | C[C@@H]1CN(c2cc(F)c(-c3cnc(N4CCOCC4)nc3)cc2NC(=O)c2cccc(F)c2C(F)(F)F)C[C@H](C)N1C [Example 295, 3-fluoro-N-[4-fluoro-5-(2-morpholin-4-ylpyrimidin-5-yl)-2-[(3R,5S)-3,4,5-trimethylpiperazin-1-yl]phenyl]-2-(trifluoromethyl)benzamide]
2.35 | CC1CN(c2cc(F)c(-c3cnc(N4CCOC(C)(C)C4)nc3)cc2NC(=O)c2c[nH]c(=O)cc2C(F)(F)F)CCN1C (stereo in doubt) [Example 349, N-[5-[2-(2,2-dimethylmorpholin-4-yl)pyrimidin-5-yl]-4-fluoro-2-[(3R)-3,4-dimethylpiperazin-1-yl]phenyl]-6-oxo-4-(trifluoromethyl)-1H-pyridine-3-carboxamide]
93.2 | C[C@@H]1CN(c2cc(F)c(-c3cnc(N4CCOCC4)nc3)cc2NC(=O)c2scnc2C(F)(F)F)C[C@H](C)N1C [Example 188, N-[4-fluoro-5-(2-morpholin-4-ylpyrimidin-5-yl)-2-[(3R,5S)-3,4,5-trimethylpiperazin-1-yl]phenyl]-4-(trifluoromethyl)-1,3-thiazole-5-carboxamide]
0.532 | C[C@@H]1CN(c2ccc(-c3cc(NC(=O)c4c[nH]c(=O)cc4C(F)(F)F)c(N4C[C@@H](C)N(C)[C@@H](C)C4)cc3F)cn2)C[C@H](C)O1 [Example 272, N-[4-fluoro-5-[6-[(2R,6S)-2,6-dimethylmorpholin-4-yl]pyridin-3-yl]-2-[(3S,5R)-3,4,5-trimethylpiperazin-1-yl]phenyl]-6-oxo-4-(trifluoromethyl)-1H-pyridine-3-carboxamide]
2.72 | COc1ccc(C(C)N2CC=C(c3cc(NC(=O)c4c[nH]c(=O)cc4C(F)(F)F)c(N4C[C@@H](C)N(C)[C@@H](C)C4)cc3F)CC2)cc1 (stereo partly drawn) [Example 232, N-[4-fluoro-5-[1-[1-(4-methoxyphenyl)ethyl]-3,6-dihydro-2H-pyridin-4-yl]-2-[(3R,5S)-3,4,5-trimethylpiperazin-1-yl]phenyl]-6-oxo-4-(trifluoromethyl)-1H-pyridine-3-carboxamide]
2.48 | C[C@@H]1CN(c2cc(F)c(C3=CCN(C(=O)OC(C)(C)C)C3)cc2NC(=O)c2c[nH]c(=O)cc2C(F)(F)F)C[C@H](C)N1C [Example 323, tert-butyl 3-[2-fluoro-5-[[6-oxo-4-(trifluoromethyl)-1H-pyridine-3-carbonyl]amino]-4-[(3R,5S)-3,4,5-trimethylpiperazin-1-yl]phenyl]-2,5-dihydropyrrole-1-carboxylate]
31.1 | C[C@@H]1CN(c2cc(F)c(C3CCNCC3)cc2NC(=O)c2c[nH]c(=O)cc2C(F)(F)F)C[C@H](C)N1C [Example 236, N-[4-fluoro-5-piperidin-4-yl-2-[(3R,5S)-3,4,5-trimethylpiperazin-1-yl]phenyl]-6-oxo-4-(trifluoromethyl)-1H-pyridine-3-carboxamide]
6.83 | C[C@@H]1CN(c2cc(F)c(-c3ccc(OC(F)(F)F)cc3)cc2NC(=O)c2c[nH]c(=O)cc2C(F)(F)F)C[C@H](C)N1C [Example 145, N-[4-fluoro-2-[(3R,5S)-3,4,5-trimethylpiperazin-1-yl]-5-[4-(trifluoromethoxy)phenyl]phenyl]-6-oxo-4-(trifluoromethyl)-1H-pyridine-3-carboxamide]
0.823 | CC(=O)Nc1ncc(-c2cc(NC(=O)c3c[nH]c(=O)cc3C(F)(F)F)c(N3C[C@@H](C)N(C)[C@@H](C)C3)cc2F)cn1 [Example 72, N-[5-(2-acetamidopyrimidin-5-yl)-4-fluoro-2-[(3R,5S)-3,4,5-trimethylpiperazin-1-yl]phenyl]-6-oxo-4-(trifluoromethyl)-1H-pyridine-3-carboxamide]
1.15 | C[C@@H]1CN(c2cc(F)c(C3=CCCN(C(=O)N4CCCC4)C3)cc2NC(=O)c2c[nH]c(=O)cc2C(F)(F)F)C[C@H](C)N1C [Example 374, N-[4-fluoro-5-[1-(pyrrolidine-1-carbonyl)-3,6-dihydro-2H-pyridin-5-yl]-2-[(3R,5S)-3,4,5-trimethylpiperazin-1-yl]phenyl]-6-oxo-4-(trifluoromethyl)-1H-pyridine-3-carboxamide]
2.51 | C[C@@H]1CN(c2cc(F)c(C3=CCN(C4CCCC4)CC3)cc2NC(=O)c2c[nH]c(=O)cc2C(F)(F)F)C[C@H](C)N1C [Example 231, N-[5-(1-cyclopentyl-3,6-dihydro-2H-pyridin-4-yl)-4-fluoro-2-[(3R,5S)-3,4,5-trimethylpiperazin-1-yl]phenyl]-6-oxo-4-(trifluoromethyl)-1H-pyridine-3-carboxamide]
1.18 | C[C@@H]1CN(c2cc(F)c(C3=CCN(C(=O)N4CCCC4)CC3)cc2NC(=O)c2c[nH]c(=O)cc2C(F)(F)F)C[C@H](C)N1C [Example 286, N-[4-fluoro-5-[1-(pyrrolidine-1-carbonyl)-3,6-dihydro-2H-pyridin-4-yl]-2-[(3R,5S)-3,4,5-trimethylpiperazin-1-yl]phenyl]-6-oxo-4-(trifluoromethyl)-1H-pyridine-3-carboxamide]

Same assay, conditions: surface plasmon resonance (SPR); read-out: WDR5 binding affinity (KD)

Kd [nM] | SMILES
3.1 | C[C@@H]1CN(c2cc(F)c(-c3ccc(F)c(C(N)=O)c3)cc2NC(=O)c2c[nH]c(=O)cc2C(F)F)C[C@H](C)N1C [Example 552, N-[5-(3-carbamoyl-4-fluorophenyl)-4-fluoro-2-[(3R,5S)-3,4,5-trimethylpiperazin-1-yl]phenyl]-4-(difluoromethyl)-6-oxo-1H-pyridine-3-carboxamide]
1.41 | C[C@@H]1CN(c2ncc(-c3cc(NC(=O)c4c[nH]c(=O)cc4C(F)(F)F)c(N4CCC(N(C)C)C4)cc3F)cn2)C[C@H](C)O1 (stereo in doubt) [Example 417, N-[4-fluoro-2-[(3S)-3-(dimethylamino)pyrrolidin-1-yl]-5-[2-[(2R,6S)-2,6-dimethylmorpholin-4-yl]pyrimidin-5-yl]phenyl]-6-oxo-4-(trifluoromethyl)-1H-pyridine-3-carboxamide]
5.32 | CC1CN(c2cc(F)c(-c3ccc(N4CCOCC4)c(F)c3)cc2NC(=O)c2cn(C)c(=O)cc2C(F)F)CCN1C (stereo in doubt) [Example 478, 4-(difluoromethyl)-N-[4-fluoro-5-(3-fluoro-4-morpholin-4-ylphenyl)-2-[(3R)-3,4-dimethylpiperazin-1-yl]phenyl]-1-methyl-6-oxopyridine-3-carboxamide]
4.89 | C[C@@H]1CN(c2cc(F)c(-c3csc(C(=O)N(C)C4CCCCC4)n3)cc2NC(=O)c2cn(C)c(=O)cc2C(F)(F)F)C[C@H](C)N1C [Example 526, N-cyclohexyl-4-[2-fluoro-5-[[1-methyl-6-oxo-4-(trifluoromethyl)pyridine-3-carbonyl]amino]-4-[(3R,5S)-3,4,5-trimethylpiperazin-1-yl]phenyl]-N-methyl-1,3-thiazole-2-carboxamide]
1.99 | CC1CN(c2cc(F)c(C3=CCN(c4ncc(C#N)s4)CC3)cc2NC(=O)c2c[nH]c(=O)cc2C(F)F)CCN1C (stereo in doubt) [Example 686, N-[5-[1-(5-cyano-1,3-thiazol-2-yl)-3,6-dihydro-2H-pyridin-4-yl]-4-fluoro-2-[(3R)-3,4-dimethylpiperazin-1-yl]phenyl]-4-(difluoromethyl)-6-oxo-1H-pyridine-3-carboxamide]
1.51 | CNC(=O)c1cc(-c2cc(NC(=O)c3c[nH]c(=O)cc3C(F)F)c(N3CCN(C)C(C)C3)cc2F)ccc1F (stereo in doubt) [Example 598, 4-(difluoromethyl)-N-[4-fluoro-5-[4-fluoro-3-(methylcarbamoyl)phenyl]-2-[(3R)-3,4-dimethylpiperazin-1-yl]phenyl]-6-oxo-1H-pyridine-3-carboxamide]
1.59 | COc1cc(N2CC=C(c3cc(NC(=O)c4c[nH]c(=O)cc4C(F)F)c(N4C[C@@H](C)N(C)[C@@H](C)C4)cc3F)CC2)ncn1 [Example 647, 4-(difluoromethyl)-N-[4-fluoro-5-[1-(6-methoxypyrimidin-4-yl)-3,6-dihydro-2H-pyridin-4-yl]-2-[(3R,5S)-3,4,5-trimethylpiperazin-1-yl]phenyl]-6-oxo-1H-pyridine-3-carboxamide]
2.56 | C[C@@H]1CN(c2cc(F)c(-c3ccnc(C#N)n3)cc2NC(=O)c2c[nH]c(=O)cc2C(F)(F)F)C[C@H](C)N1C [Example 539, N-[5-(2-cyanopyrimidin-4-yl)-4-fluoro-2-[(3R,5S)-3,4,5-trimethylpiperazin-1-yl]phenyl]-6-oxo-4-(trifluoromethyl)-1H-pyridine-3-carboxamide]
5.02 | CC1CN(c2cc(F)c(-c3cccc(N4CCOCC4)n3)cc2NC(=O)c2cn(C)c(=O)cc2C(F)F)CCN1C (stereo in doubt) [Example 672, 4-(difluoromethyl)-N-[4-fluoro-5-(6-morpholin-4-ylpyridin-2-yl)-2-[(3R)-3,4-dimethylpiperazin-1-yl]phenyl]-1-methyl-6-oxopyridine-3-carboxamide]
354 | COc1cc(C(F)(F)F)c(C(=O)Nc2cc(-c3cnc(N4CCOCC4)nc3)c(F)cc2N2C[C@@H](C)N(C)[C@@H](C)C2)cn1 [Example 506, N-[4-fluoro-5-(2-morpholin-4-ylpyrimidin-5-yl)-2-[(3R,5S)-3,4,5-trimethylpiperazin-1-yl]phenyl]-6-methoxy-4-(trifluoromethyl)pyridine-3-carboxamide]
2.44 | C[C@@H]1CN(c2cc(F)c(C3=CCN(c4ccc(C5CC5)nn4)CC3)cc2NC(=O)c2c[nH]c(=O)cc2C(F)(F)F)C[C@H](C)N1C [Example 503, N-[5-[1-(6-cyclopropylpyridazin-3-yl)-3,6-dihydro-2H-pyridin-4-yl]-4-fluoro-2-[(3R,5S)-3,4,5-trimethylpiperazin-1-yl]phenyl]-6-oxo-4-(trifluoromethyl)-1H-pyridine-3-carboxamide]
